Test results from patent US10314847B2, “Scalarane sesterterpenoid, pharmaceutical composition and topoisomerase II and Hsp90 inhibitor for treating cancer, and use and preparation method thereof” (NATIONAL DONG HWA UNIVERSITY, priority 2017, dated 2019).

Columns and labels:
Hsp90 client proteins = assay: Western blot of Hsp90, Hsp70 and Hsp90 client proteins; assay type: cell-based, human; conditions: Molt 4 cells, 0.0625 μg/mL
Protocol: (§1) The induction of Hsp70 is the biomarker of Hsp90 with N-terminal inhibition. Aiming to understand the relation between Hsp90 function and the expression of Hsp70 and 90 clients, Molt 4 cells were treated with compound 1 (0.0625 μg/mL) for different time intervals. […] Furthermore, as shown in FIG. 5(B), Hsp90 client proteins were suppressed, including p70^S6K, NFκB, Raf-1, p-GSK3β, MEK 1 and XIAP ([…] protein), MDM 2 and Rb2 (oncoprotein), and CDK4 (cell cycle regulatory protein), HIF 1 and HSF1 (transcription factor). The majority of Hsps accumulate in subcellular localizations that determine whether a cell is going to die or differentiate. Furthermore, the localization of Hsp70 in response to the compound 1 treatment was identified using immunofluorescence by confocal microscope.

[1] = molecular target: T1, Hsp90 protein (PDB ID: 1YET) (Homo sapiens, UniProt P07900); assay: Molecular docking (Autodock 4.2)
T1 construct: Compound 1 could be docked to the N-terminal domain of Hsp90
Text: It is known that mitochondria are critical intracellular loci of ROS production and ROS exposure can lead to the […] opening. The antioxidant, microsomal GST1, in the inner mitochondrial membrane can interact with the mitochondrial permeability transition (MPT) regulator proteins, such as ANT and/or CypD, to form a MPT pore contributing to mitochondria-mediated cell death. In addition, mitochondrial homeostasis of tumor cells is regulated by an organelle-specific Hsp90 chaperone network.

Hsp70 = assay: Immunofluorescence analysis of Hsp70 localization; assay type: cell-based, human; conditions: Molt 4 cells, confocal microscope
Protocol: Immunofluorescence Analysis:
After treatment with the tested compound, cells were fixed with 4% paraformaldehyde in 50 mM HEPES buffer (pH 7.3) for 30 minutes, and permeabilized for 20 minutes with 0.2% Trition X-100 in PBS (pH 7.4). To prevent non-specific protein binding, cells were incubated with 5% BSA in PBS containing 0.05% Trition X-100 (T-PBS) for 1 hour at room temperature. Cells were then incubated with the primary Hsp70 antibodies (1:500) for 2 hours and further with secondary antibodies (Alexa Fluor […] goat anti-mouse IgG (H+L) (Life Technologies, Carlsbad, Calif., U.S.A.)) diluted at 1:1000 for 1 hour at room temperature. After washing with PBS, cells were observed under a FV1000 confocal laser scanning microscope (Olympus, Tokyo, Japan).
as §1, with “The majority of Hsps accumulate in subcellular localizations that determine whether a cell is going to die or differentiate. Furthermore, the localization of Hsp70 in response to the compound 1 treatment was identified using immunofluorescence by confocal microscope.” left out

Molt 4 cells [2] = assay: Intracellular calcium accumulation (Fluo 3, flow cytometry); assay type: cell-based, human
Protocol: Determination of Reactive Oxygen Species (ROS) Generation, Calcium Accumulation, and Matrix Metalloproteinase (MMP) Disruption:
MMP disruption, calcium accumulation and ROS generation were detected with the JC-1 cationic dye (5 μg/mL), the fluorescent calcium indicator (Fluo 3, […]) and the carboxy derivative of fluorescein (carboxy-H2DCFDA, […]), respectively. In brief, the treated cells were labeled with a specific fluorescent dye for 30 minutes. After labeling, cells were washed with PBS and resuspended in PBS at a concentration of 1×10^6 cells/mL before analysis via flow cytometry.
Oxidative stress is manifested by ROS overexpression and cannot be balanced by the available antioxidant machinery. Compound 1 of the present invention can damage the integrity of mitochondria, which are the major production sites of the superoxide anion, […]. The induction of the intracellular formation of ROS by compound 1 was determined with a carboxyl derivative of fluorescein, carboxy-H2DCFDA dye using flow cytometric analysis. […] Furthermore, the effect of compound 1 on the release of intracellular Ca^2+, was evaluated using fluorescent calcium indicator, Fluo 3. […] Thus, the effect of compound 1 (0.0625 μg/mL) at different time intervals (0, 3, 6 and 9 hours) on the level of nuclear DNA integrity was determined. […]

U937 = assay: MTT assay, cytotoxic effect on U937; assay type: cell-based; conditions: Homo sapiens, U-937; U937, molar value in text
Text: The cell lines were obtained from the American Type Culture Collection (ATCC, Manassas, Va., U.S.A.) or the Japanese Collection of Research Biosources (JCRB) Cell Bank (Japan). […] Antibodies against XIAP, NFκB (p65), GADD, CDK 4, HSF 1, ATF 6 and β-tubulin were obtained from Santa Cruz Biotechnology (Santa Cruz, Calif., U.S.A.). The Hybond ECL transfer membrane and ECL Western blotting detection kits were obtained from Amersham Life Sciences (Amersham, U.K.).
Several cancer cell lines including leukemia K562, Molt 4, and HL 60 cells, prostate cancer LNCaP cells, colon cancer DLD-1 cells and breast cancer T-47D cells were used to evaluate the antiproliferative activity (referring to Table 2).

Molt 4 cells [3] = assay: Neutral comet assay for DNA double-strand breaks; assay type: cell-based, human; conditions: 0.0625 μg/mL, 0, 3, 6 and 9 hours
Protocol: Neutral Comet Assay for Detection of DNA Double-Strand Breaks (DSBs):
The assay was carried out using a CometAssay™ Kit (Trevigen, Gaithersburg, Md., U.S.A.) following the manufacturer's protocol for the neutral Comet assay. Briefly, cancer cells (2×10^5 cells/mL) were treated with compound 1 (0.0625 μg/mL) at the indicated time. Cells were combined with 1% low melting point agarose at a ratio of 1:10 (v/v) and immediately 75 μL of the mixture was pipetted onto CometSlide™ and allowed to set at 4° C. in the dark. The slides were immersed in an ice-cold lysis solution (Trevigen) for 30 to 60 minutes. […] The fluorescence images were analyzed using the TriTek Comet Image program to circumscribe the “head” and the “tail” regions of each comet and the integrated fluorescence values of each defined area were recorded. The comet length was measured from the trailing edge of the nucleus to the leading edge of the tail. […] The results were expressed as mean±standard deviation (SD) (*p<0.05).
Oxidative stress is manifested by ROS overexpression and cannot be balanced by the available antioxidant machinery. […] The induction of the intracellular formation of ROS by compound 1 was determined with a carboxyl derivative of fluorescein, carboxy-H2DCFDA dye using flow cytometric analysis. […]

CC[C@@]1(C)CCC[C@]2(C)[C@H]3C[C@@H](OC(=O)C[C@@H](C)O)[C@]4(C)[C@@H](C=O)C(C(C)=O)=CC[C@H]4[C@]3(C)CC[C@@H]12 (relative stereo) [Compound 1, 12β-(3′β-hydroxybutanoyloxy)-20,24-dimethyl-24-oxo-scalara-16-en-25-al]
Expression of HSF 1 protein (Hsp90 client proteins): attenuated
Hsp90 client proteins (p70S6K, NFκB, Raf-1, p-GSK3β, MEK 1, XIAP, MDM 2, Rb2, CDK4, HIF 1, HSF1) (Hsp90 client proteins): suppressed
Expression of Hsp70 (Hsp90 client proteins; different time intervals): increased in a time-dependent manner
Expression of Hsp90 protein (Hsp90 client proteins; different time intervals): did not notably attenuate
Potency of Hsp90 inhibition constant relative to 17-AAG [1]: > 1430 folds
Localization of Hsp70 (Hsp70): predominantly accumulated in cytosol
Increase in intracellular Ca2+ accumulation versus MFI of control (Molt 4 cells [2]; 2 hours): 1.06 folds
Increase in intracellular Ca2+ accumulation versus MFI of control (Molt 4 cells [2]; 18 hours): 1.06 folds
IC50 (U937): 2.08 nM
DNA migration (comet tail, DSBs) (Molt 4 cells [3]): increased the degree of DNA migration
